The values below come from ChEMBL document CHEMBL5291721, “A preclinical secondary pharmacology resource illuminates target-adverse drug reaction associations of marketed drugs” (Nat Commun, 2023).

Bounds are passed on as bounds.

Among the targets are Adenosine receptor A2a (Homo sapiens, UniProt P29274); Vasopressin V2 receptor (Homo sapiens, UniProt P30518); Motilin receptor (Homo sapiens, UniProt O43193); Histamine H3 receptor (Homo sapiens, UniProt Q9Y5N1); D(3) dopamine receptor (Homo sapiens, UniProt P35462).
Assay [1] concerns the target Neuronal acetylcholine receptor subunit alpha-4 (Homo sapiens, UniProt P43681).
For assay [2], the target named is T1, Equilibrative nucleoside transporter 1 (Homo sapiens, UniProt Q99808).
T1 sequence (Q99808 whole entry): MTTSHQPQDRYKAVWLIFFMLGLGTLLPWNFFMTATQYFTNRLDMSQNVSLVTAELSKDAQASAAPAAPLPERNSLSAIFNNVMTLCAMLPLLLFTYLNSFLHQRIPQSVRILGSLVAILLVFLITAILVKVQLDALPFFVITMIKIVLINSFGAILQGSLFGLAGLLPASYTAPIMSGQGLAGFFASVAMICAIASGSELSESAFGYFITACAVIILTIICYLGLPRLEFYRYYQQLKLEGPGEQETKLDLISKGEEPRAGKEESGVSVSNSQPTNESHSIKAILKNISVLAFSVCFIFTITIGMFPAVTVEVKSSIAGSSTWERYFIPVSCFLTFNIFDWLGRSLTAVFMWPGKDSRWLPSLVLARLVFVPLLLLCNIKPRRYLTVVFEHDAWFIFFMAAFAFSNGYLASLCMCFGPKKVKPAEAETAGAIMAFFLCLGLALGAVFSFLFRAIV

In assay [3] the target is Beta-2 adrenergic receptor (Homo sapiens, UniProt P07550).
The target of assay [4] is Voltage-dependent L-type calcium channel subunit alpha-1C (Rattus norvegicus, UniProt P22002). In kind it is functional.
Voltage-dependent L-type calcium channel subunit alpha-1C, sequence (P22002 whole entry): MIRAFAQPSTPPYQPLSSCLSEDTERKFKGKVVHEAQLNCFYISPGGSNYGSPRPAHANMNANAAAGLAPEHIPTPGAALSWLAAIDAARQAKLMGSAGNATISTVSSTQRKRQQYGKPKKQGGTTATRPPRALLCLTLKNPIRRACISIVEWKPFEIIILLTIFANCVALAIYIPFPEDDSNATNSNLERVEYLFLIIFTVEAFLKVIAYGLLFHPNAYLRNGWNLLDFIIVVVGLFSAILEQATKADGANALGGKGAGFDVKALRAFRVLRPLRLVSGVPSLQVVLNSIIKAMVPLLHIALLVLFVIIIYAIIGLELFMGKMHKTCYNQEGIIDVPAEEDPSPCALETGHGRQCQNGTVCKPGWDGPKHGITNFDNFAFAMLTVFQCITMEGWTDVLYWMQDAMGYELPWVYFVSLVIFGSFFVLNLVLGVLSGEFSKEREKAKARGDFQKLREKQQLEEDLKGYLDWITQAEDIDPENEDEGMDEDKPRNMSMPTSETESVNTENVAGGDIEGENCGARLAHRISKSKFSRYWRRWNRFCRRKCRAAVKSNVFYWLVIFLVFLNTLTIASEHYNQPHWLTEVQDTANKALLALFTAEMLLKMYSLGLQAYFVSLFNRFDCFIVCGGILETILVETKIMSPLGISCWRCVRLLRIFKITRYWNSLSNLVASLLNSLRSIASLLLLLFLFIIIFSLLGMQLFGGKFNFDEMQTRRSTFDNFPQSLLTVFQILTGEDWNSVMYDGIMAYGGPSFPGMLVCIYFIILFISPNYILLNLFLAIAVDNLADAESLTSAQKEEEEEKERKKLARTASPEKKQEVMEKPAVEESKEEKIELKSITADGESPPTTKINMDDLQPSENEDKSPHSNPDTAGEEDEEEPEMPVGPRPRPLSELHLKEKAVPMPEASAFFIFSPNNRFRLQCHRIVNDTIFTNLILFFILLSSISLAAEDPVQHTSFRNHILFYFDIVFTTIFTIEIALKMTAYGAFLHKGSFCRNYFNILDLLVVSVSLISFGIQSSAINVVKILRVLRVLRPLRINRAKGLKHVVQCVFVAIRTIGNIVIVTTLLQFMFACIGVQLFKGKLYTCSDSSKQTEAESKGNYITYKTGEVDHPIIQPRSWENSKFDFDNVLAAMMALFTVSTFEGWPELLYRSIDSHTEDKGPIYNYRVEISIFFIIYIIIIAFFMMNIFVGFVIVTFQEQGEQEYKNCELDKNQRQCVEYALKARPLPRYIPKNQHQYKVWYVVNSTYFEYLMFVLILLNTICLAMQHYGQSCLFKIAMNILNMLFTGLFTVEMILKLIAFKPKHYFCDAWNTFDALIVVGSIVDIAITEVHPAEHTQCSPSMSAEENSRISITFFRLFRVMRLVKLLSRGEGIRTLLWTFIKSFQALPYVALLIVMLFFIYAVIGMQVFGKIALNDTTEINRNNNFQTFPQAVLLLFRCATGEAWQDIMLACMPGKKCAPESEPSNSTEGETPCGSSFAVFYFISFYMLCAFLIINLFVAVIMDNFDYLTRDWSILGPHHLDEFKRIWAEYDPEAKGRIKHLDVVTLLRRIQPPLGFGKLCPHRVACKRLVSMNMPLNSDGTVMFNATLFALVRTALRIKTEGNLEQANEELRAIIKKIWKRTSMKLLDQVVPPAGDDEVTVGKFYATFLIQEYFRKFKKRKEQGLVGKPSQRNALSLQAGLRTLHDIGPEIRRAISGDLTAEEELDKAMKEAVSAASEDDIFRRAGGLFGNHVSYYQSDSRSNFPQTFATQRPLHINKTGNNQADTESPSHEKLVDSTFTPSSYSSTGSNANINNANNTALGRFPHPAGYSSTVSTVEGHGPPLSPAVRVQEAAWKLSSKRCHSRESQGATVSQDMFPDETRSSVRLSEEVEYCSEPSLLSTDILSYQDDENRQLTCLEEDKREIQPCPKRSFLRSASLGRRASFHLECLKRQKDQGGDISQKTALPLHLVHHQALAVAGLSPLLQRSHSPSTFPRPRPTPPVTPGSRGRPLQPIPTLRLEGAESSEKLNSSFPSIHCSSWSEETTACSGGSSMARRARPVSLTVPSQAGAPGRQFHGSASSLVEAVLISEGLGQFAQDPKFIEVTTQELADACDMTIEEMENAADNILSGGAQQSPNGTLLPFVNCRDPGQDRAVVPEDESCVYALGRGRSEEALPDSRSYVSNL
Assay [5] addresses T2, Muscarinic acetylcholine receptor M2 (Homo sapiens, UniProt P08172).
T2 sequence (P08172 whole entry): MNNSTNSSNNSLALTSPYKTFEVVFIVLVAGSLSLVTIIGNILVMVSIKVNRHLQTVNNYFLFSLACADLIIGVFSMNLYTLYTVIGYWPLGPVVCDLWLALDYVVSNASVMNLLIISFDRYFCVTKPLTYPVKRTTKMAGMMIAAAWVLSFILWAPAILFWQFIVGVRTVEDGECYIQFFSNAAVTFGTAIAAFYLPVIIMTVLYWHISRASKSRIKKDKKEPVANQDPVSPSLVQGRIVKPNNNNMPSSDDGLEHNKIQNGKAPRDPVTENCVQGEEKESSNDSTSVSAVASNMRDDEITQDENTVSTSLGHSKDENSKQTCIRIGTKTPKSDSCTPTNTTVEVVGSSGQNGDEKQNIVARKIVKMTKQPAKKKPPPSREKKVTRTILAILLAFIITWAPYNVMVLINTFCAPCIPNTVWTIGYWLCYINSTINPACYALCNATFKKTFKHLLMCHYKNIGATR
The class given is functional, cell-based.

In assay [6] the target is T3, 5-hydroxytryptamine receptor 2C (Homo sapiens, UniProt P28335).
T3 sequence (P28335 whole entry): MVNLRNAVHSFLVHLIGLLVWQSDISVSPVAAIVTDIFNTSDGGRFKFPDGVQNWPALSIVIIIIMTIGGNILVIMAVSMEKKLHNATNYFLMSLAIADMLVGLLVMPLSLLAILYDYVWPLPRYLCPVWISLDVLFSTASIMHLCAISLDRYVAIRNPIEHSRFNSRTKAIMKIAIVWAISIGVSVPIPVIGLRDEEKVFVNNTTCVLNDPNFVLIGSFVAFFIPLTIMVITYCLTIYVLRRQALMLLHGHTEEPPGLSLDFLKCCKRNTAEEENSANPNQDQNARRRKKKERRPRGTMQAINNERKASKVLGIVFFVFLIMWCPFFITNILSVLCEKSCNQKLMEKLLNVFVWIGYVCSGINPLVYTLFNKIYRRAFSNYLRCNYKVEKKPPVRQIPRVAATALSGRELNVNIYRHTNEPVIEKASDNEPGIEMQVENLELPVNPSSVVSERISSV

Assay [7] concerns the target Kappa-type opioid receptor (Homo sapiens, UniProt P41145).
Assay [8] addresses 3',5'-cyclic-AMP phosphodiesterase 4D (Homo sapiens, UniProt Q08499). The class given is functional.
Assay [9] concerns the target cGMP-inhibited 3',5'-cyclic phosphodiesterase 3A (Homo sapiens, UniProt Q14432). In kind it is functional.
Assay [10] has as its target Muscarinic acetylcholine receptor M3 (Homo sapiens, UniProt P20309).
Another assay concerns the target Histamine H2 receptor (Homo sapiens, UniProt P25021). The class given is functional, cell-based.
The target in assay [11] is T4, Alpha-1A adrenergic receptor (Homo sapiens, UniProt P35348).
T4 sequence (P35348 whole entry): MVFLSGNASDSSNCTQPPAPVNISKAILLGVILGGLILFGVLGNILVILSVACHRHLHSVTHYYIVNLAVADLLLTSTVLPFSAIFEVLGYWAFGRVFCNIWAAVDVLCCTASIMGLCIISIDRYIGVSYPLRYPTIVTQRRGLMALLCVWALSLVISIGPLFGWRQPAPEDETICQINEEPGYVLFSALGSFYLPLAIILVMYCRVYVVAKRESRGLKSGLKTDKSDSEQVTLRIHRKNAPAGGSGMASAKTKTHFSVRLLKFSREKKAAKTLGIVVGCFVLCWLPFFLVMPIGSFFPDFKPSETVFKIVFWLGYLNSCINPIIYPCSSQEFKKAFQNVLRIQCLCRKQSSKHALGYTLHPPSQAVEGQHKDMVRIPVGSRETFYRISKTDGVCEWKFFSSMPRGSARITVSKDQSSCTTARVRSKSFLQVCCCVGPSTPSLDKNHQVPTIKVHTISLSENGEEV
In kind it is functional, cell-based.
Further: assay procedure not described here.

cGMP-inhibited 3',5'-cyclic phosphodiesterase 3A, sequence (Q14432 whole entry): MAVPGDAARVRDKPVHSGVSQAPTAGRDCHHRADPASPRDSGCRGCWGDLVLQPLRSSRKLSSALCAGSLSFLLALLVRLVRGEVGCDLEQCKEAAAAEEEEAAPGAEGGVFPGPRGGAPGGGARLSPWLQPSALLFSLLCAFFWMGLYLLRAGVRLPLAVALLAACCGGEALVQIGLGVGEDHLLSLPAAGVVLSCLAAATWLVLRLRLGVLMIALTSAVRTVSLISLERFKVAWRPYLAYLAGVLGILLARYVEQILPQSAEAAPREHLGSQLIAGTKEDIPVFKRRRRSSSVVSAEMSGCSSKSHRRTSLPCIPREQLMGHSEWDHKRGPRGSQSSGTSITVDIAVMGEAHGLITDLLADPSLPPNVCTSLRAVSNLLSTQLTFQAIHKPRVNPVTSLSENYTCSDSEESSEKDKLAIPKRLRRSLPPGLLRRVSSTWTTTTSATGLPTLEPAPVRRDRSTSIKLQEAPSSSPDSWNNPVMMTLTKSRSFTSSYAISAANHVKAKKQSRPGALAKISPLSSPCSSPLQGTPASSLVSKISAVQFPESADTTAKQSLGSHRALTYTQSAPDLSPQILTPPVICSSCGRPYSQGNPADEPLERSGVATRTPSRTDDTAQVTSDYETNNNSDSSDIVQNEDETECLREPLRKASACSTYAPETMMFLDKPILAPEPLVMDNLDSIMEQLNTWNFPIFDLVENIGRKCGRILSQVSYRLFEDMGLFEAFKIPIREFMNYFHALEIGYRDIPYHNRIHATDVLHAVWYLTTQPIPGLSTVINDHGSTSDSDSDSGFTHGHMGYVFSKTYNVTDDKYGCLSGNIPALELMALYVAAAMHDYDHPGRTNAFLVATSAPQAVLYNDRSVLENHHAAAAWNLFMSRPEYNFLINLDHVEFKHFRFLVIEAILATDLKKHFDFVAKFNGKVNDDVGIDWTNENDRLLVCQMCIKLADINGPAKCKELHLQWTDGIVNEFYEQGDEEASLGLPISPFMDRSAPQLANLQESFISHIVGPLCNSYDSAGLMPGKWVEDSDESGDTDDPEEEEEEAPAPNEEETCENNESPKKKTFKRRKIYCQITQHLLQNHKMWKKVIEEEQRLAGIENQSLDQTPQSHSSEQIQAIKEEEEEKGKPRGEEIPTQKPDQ
Muscarinic acetylcholine receptor M3, sequence (P20309 whole entry): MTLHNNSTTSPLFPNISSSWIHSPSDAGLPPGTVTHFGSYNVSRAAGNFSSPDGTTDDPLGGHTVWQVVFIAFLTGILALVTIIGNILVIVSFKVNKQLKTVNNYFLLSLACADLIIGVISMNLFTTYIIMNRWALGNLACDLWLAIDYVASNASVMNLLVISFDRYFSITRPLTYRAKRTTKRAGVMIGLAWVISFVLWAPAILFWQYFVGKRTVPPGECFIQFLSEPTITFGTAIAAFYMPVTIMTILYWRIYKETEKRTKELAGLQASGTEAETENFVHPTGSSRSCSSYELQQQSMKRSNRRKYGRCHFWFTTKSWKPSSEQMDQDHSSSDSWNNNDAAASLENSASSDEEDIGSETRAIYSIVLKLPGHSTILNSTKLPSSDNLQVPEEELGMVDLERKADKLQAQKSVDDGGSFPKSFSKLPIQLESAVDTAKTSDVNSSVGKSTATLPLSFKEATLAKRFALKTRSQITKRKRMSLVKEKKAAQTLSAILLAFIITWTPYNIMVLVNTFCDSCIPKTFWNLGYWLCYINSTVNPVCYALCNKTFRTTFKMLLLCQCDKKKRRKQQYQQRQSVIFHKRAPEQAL
Motilin receptor, sequence (O43193 whole entry): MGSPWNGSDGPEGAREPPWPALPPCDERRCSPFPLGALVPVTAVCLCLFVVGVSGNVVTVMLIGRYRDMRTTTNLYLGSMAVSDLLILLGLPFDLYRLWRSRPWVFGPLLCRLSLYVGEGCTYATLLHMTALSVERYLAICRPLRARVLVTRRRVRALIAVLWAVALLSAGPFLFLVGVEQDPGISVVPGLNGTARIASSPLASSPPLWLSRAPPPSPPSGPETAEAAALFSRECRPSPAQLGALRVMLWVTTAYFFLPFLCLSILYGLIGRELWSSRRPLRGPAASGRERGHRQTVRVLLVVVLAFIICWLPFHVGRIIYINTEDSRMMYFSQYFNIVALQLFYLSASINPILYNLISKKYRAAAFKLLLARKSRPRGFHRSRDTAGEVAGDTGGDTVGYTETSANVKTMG
D(3) dopamine receptor, sequence (P35462 whole entry): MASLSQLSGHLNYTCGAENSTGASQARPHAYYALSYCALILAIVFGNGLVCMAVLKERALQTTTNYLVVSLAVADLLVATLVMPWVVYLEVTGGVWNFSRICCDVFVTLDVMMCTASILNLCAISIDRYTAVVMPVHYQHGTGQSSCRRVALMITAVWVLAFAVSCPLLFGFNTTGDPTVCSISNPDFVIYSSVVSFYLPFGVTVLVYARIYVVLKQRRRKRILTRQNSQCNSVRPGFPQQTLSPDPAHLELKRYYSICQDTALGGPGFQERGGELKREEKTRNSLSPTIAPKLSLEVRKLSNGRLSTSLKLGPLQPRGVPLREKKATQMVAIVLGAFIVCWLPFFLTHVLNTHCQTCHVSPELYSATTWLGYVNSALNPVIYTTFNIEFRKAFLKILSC
Vasopressin V2 receptor, sequence (P30518 whole entry): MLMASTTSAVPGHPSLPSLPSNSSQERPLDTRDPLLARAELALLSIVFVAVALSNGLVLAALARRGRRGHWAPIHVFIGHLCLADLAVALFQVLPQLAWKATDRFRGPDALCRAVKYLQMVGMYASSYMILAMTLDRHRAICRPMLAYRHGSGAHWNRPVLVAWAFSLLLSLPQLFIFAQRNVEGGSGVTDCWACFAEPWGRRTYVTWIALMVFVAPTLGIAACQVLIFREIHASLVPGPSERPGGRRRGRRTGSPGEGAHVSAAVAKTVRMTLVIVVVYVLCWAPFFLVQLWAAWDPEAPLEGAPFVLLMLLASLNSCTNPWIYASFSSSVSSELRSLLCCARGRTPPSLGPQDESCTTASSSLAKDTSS

For the molecule `CCC(CC)(CC(=O)Nc1cccc(/C=C/c2nc(C3CCC3)cs2)c1)C(=O)O`, the AC50 (on Adenosine receptor A2a; on Vasopressin V2 receptor; in [1]; at Motilin receptor; in assay [2]; at Histamine H3 receptor) was more than 30 µM in each case.
As for `COc1cc2nc(N3CCN(C(=O)c4ccco4)CC3)nc(N)c2cc1OC` [PRAZOSIN], the AC50 (in general, the concentration giving half of the maximal activity seen) is more than 30 µM at Adenosine receptor A2a; more than 10 µM in [3]; more than 30 µM on Vasopressin V2 receptor; more than 10 µM in assay [4]; more than 10 µM in [5]; more than 10 µM in assay [1]. Besides, the AC50 is more than 30 µM in assay [6]; more than 10 µM on Motilin receptor; 4.94 µM in [7]; more than 30 µM in assay [8]; more than 30 µM in assay [2]; more than 30 µM in assay [9]. For the same molecule, the AC50 on D(3) dopamine receptor was more than 30 µM; on Histamine H3 receptor it was more than 10 µM.
For the molecule `O=[N+]([O-])O[C@@H]1CO[C@H]2[C@@H]1OC[C@@H]2O` [ISOSORBIDE MONONITRATE], the AC50 at Adenosine receptor A2a is more than 30 µM; in [3] it was more than 10 µM; at Vasopressin V2 receptor it was more than 30 µM; in assay [4] it was more than 10 µM; in [5] it was more than 10 µM; in [10], more than 10 µM. Also, the AC50 was more than 10 µM on Histamine H2 receptor; more than 30 µM in [6]; more than 10 µM on Motilin receptor; more than 10 µM in [7]; more than 30 µM in assay [8]; more than 30 µM in assay [2]. Besides, the AC50 in assay [9] is more than 30 µM; at D(3) dopamine receptor it was more than 10 µM; at Histamine H3 receptor, more than 10 µM.
Regarding `CN1CCN(C2=Nc3ccccc3Sc3ccc(Cl)cc32)CC1` [CLOTHIAPINE], the AC50 is more than 30 µM in assay [11]; more than 30 µM in assay [5]; 2 µM in [10]; more than 30 µM at Histamine H2 receptor; 0.8 µM in assay [6]; more than 30 µM in [7]. Further, the AC50 was more than 30 µM in [8], more than 30 µM in [9] and 0.35 µM at D(3) dopamine receptor.
In the case of `O=[N+]([O-])c1cn2c(n1)OC[C@@H](OCc1ccc(OC(F)(F)F)cc1)C2` [PRETOMANID], the AC50 on Adenosine receptor A2a was more than 30 µM; in assay [3], more than 10 µM; on Vasopressin V2 receptor it was more than 30 µM; in assay [4], more than 10 µM; in [10], more than 10 µM; in [6], more than 10 µM. Also, the AC50 is more than 10 µM at Motilin receptor; more than 10 µM in [7]; more than 10 µM in assay [8]; more than 30 µM in assay [2]; more than 10 µM in assay [9]; more than 10 µM on D(3) dopamine receptor.
As to `CC(=O)c1ccc2c(c1)N(CCCN(C)C)c1ccccc1S2` [ACEPROMAZINE], the AC50 on D(3) dopamine receptor came to 0.013 µM.
Take `CCOc1ccc(Cc2cc([C@@H]3O[C@H](CO)[C@@H](O)[C@H](O)[C@H]3O)ccc2Cl)cc1` [DAPAGLIFLOZIN]: the concentration at half-maximal activity (AC50) on Adenosine receptor A2a was more than 30 µM; in assay [3] it was more than 10 µM; at Vasopressin V2 receptor, more than 30 µM; in [4], more than 10 µM; in assay [10] it was more than 30 µM; in assay [1], more than 10 µM. Also, the AC50 in [6] is more than 30 µM; at Motilin receptor it was more than 10 µM; in assay [7], more than 10 µM; in assay [8], more than 30 µM; in assay [2], more than 30 µM; in assay [9], more than 30 µM. Besides, the AC50 on D(3) dopamine receptor was more than 30 µM; at Histamine H3 receptor it was more than 10 µM.
On to `NC1CCN(c2c(F)cc3c(=O)c(C(=O)O)cn(C4CC4)c3c2Cl)C1` (stereo not given) [CLINAFLOXACIN], for which, in [10], the AC50 stood at 250 µM.
As to `CN(C)CC/C=C1\c2ccccc2CSc2ccccc21` [DOTHIEPIN], the AC50 at Adenosine receptor A2a was more than 30 µM; in assay [11] it was more than 30 µM; in assay [3], more than 30 µM; on Vasopressin V2 receptor, more than 30 µM; in assay [4] it was 24 µM; in [5], more than 30 µM. Further, the AC50 in assay [1] is more than 30 µM; at Histamine H2 receptor, more than 30 µM; in assay [6], 1.6 µM; at Motilin receptor, more than 30 µM; in assay [8], more than 30 µM; in assay [9] it was more than 30 µM. The AC50 at D(3) dopamine receptor was 3 µM; on Histamine H3 receptor, 29 µM.
As to `Cc1cc(C)c(NC(=O)CN(CC(=O)O)CC(=O)O)c(C)c1Br` [MEBROFENIN], the AC50 (in assay [11]; in assay [5]; in assay [10]; at Histamine H2 receptor; in assay [6]; in assay [7]) was more than 30 µM each time. For the same molecule, the values for the AC50 (in [8]; in assay [9]; at D(3) dopamine receptor) were more than 30 µM, more than 30 µM and 22 µM, respectively.
In the case of `CCCC1O[C@@H]2C[C@H]3[C@@H]4CCC5=CC(=O)C=C[C@]5(C)[C@H]4[C@@H](O)C[C@]3(C)[C@]2(C(=O)CO)O1` (stereo not given in full) [BUDESONIDE], the AC50 (on Adenosine receptor A2a; in [3]; at Vasopressin V2 receptor; in [4]; in assay [5]; in [1]) was more than 10 µM each time. Further, the AC50 is more than 10 µM at Histamine H2 receptor; more than 30 µM in [6]; more than 10 µM on Motilin receptor; more than 10 µM in assay [7]; more than 30 µM in assay [8]; more than 10 µM in [2]. Further, the AC50 is more than 30 µM in [9], more than 30 µM on D(3) dopamine receptor and more than 10 µM at Histamine H3 receptor.
Molecule `C[N+]1(CCCCC[N+]2(C)CCCC2)CCCC1` [PENTOLINIUM] returned an AC50 in assay [1] of more than 30 µM.
For `CC[C@H]1CN2CCc3cc(OC)c(OC)cc3[C@@H]2C[C@@H]1C[C@H]1NCCc2cc(OC)c(OC)cc21` [EMETINE], the AC50 (at Adenosine receptor A2a; in [11]; in [3]; at Vasopressin V2 receptor; in assay [5]; in assay [1]) was more than 30 µM each time. Also, the AC50 (at Histamine H2 receptor; in [6]; at Motilin receptor; in assay [7]; in [8]; in [2]) was more than 30 µM each time. Also, the AC50 (in [9]; at Histamine H3 receptor) was more than 30 µM throughout.
